Laboratory results reported in publication PMC10877290 (Heliyon, 2024).
“Also recorded” adds a separate entry of the source.

What was measured:
Format in all cases: biochemical
[1] = molecular target: human lysosomal acid-α-glucosidase (Homo sapiens, UniProt P10253); experiment: α-Glucosidase inhibition assay
[2] = molecular target: T1, human pancreatic α-amylase (Homo sapiens, UniProt P04746); experiment: α-Amylase inhibition assay
T1 sequence (P04746 16-511): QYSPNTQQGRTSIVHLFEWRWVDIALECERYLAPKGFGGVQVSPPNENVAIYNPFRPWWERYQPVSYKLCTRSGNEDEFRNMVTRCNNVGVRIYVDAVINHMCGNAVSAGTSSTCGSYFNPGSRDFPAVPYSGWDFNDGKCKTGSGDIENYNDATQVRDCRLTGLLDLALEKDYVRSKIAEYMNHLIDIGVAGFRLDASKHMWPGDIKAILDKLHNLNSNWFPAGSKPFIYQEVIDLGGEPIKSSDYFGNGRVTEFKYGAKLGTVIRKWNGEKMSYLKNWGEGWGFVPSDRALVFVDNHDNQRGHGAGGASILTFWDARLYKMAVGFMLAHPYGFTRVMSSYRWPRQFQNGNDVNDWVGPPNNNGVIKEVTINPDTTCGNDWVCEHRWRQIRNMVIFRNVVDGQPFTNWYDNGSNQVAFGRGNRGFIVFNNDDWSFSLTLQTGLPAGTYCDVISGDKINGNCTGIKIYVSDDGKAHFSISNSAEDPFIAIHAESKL

[3] = molecular target: α-glucosidase (Homo sapiens, UniProt P10253); experiment: Enzyme kinetic study, α-glucosidase; conditions: for Inhibition mode towards α-glucosidase: Lineweaver-Burk plot
[4] = molecular target: T2, α-amylase (Homo sapiens, UniProt P04746); experiment: Enzyme kinetic study, α-amylase; conditions: for Inhibition mode towards α-amylase: Lineweaver-Burk plot
T2 sequence (P04746 16-511): T1 sequence (P04746 16-511)

Row | SMILES | IC50 [1] | IC50 [2] | also measured
1 | COc1cc(C[C@@H]2C[C@H]3C(=O)N(C)[C@@]4(C[C@H](C)CC[C@H]4C(C)C)N3O2)ccc1OCC(=O)N/N=C1\C(=O)Nc2c(Cl)cccc21 [5a, N'-((Z)-7-chloro-2-oxoindolin-3-ylidene)-2-(4-(((1S,2S,2′R,3a′S,5R)-2-isopropyl-5,5′-dimethyl-4′-oxotetrahydro-2′H-spiro[cyclohexane-1,6′-imidazo [1,5-b]isoxazol]-2′-yl)methyl)-2-methoxyphenoxy)acetohydrazide] | 209 ± 10.4 µM | 194 ± 9.54 µM | Factor by which α-glucosidase activity is impaired relative to 5d ([1]; 5a versus 5d): 3.2; Factor by which α-amylase activity is impaired relative to 5d ([2]; 5a versus 5d): 6.3
2 | COc1cc(C[C@@H]2C[C@H]3C(=O)N(C)[C@@]4(C[C@H](C)CC[C@H]4C(C)C)N3O2)ccc1OCC(=O)N/N=C1\C(=O)Nc2ccc(F)cc21 [5b, N'-((Z)-5-fluoro-2-oxoindolin-3-ylidene)-2-(4-(((1S,2S,2′R,3a′S,5R)-2-isopropyl-5,5′-dimethyl-4′-oxotetrahydro-2′H-spiro[cyclohexane-1,6′-imidazo [1,5-b]isoxazol]-2′-yl)methyl)-2-methoxyphenoxy)acetohydrazide] | – | 174 ± 8.71 µM | –
3 | COc1cc(C[C@@H]2C[C@H]3C(=O)N(C)[C@@]4(C[C@H](C)CC[C@H]4C(C)C)N3O2)ccc1OCC(=O)N/N=C1\C(=O)Nc2cc(Br)ccc21 [5c, N'-((Z)-6-bromo-2-oxoindolin-3-ylidene)-2-(4-(((1S,2S,2′R,3a′S,5R)-2-isopropyl-5,5′-dimethyl-4′-oxotetrahydro-2′H-spiro[cyclohexane-1,6′-imidazo [1,5-b]isoxazol]-2′-yl)methyl)-2-methoxyphenoxy)acetohydrazide] | 152 ± 7.56 µM | 68 ± 3.4 µM | –
4 | Cc1cccc(C[C@@H]2C[C@H]3C(=O)N(C)[C@@]4(C[C@H](C)CC[C@H]4C(C)C)N3O2)c1OCC(=O)N/N=C1\C(=O)Nc2c(Cl)cccc21 [5d, N'-((Z)-7-chloro-2-oxoindolin-3-ylidene)-2-(2-(((1S,2S,2′R,3a′S,5R)-2-isopropyl-5,5′-dimethyl-4′-oxotetrahydro-2′H-spiro[cyclohexane-1,6′-imidazo [1,5-b]isoxazol]-2′-yl)methyl)-6-methylphenoxy)acetohydrazide] | 65.1 ± 3.11 µM | 30.4 ± 1.52 µM | Ki [3]: 56.1 µM; Inhibition mode towards α-glucosidase [3]: competitive inhibitors; also recorded: compete with the substrate; Ki [4]: 27.5 µM; Inhibition mode towards α-amylase [4]: competitive inhibition; also recorded: competitive inhibitors
5 | Cc1cccc(C[C@@H]2C[C@H]3C(=O)N(C)[C@@]4(C[C@H](C)CC[C@H]4C(C)C)N3O2)c1OCC(=O)N/N=C1\C(=O)Nc2cc(Br)ccc21 [5e, N'-((Z)-6-bromo-2-oxoindolin-3-ylidene)-2-(2-(((1S,2S,2′R,3a′S,5R)-2-isopropyl-5,5′-dimethyl-4′-oxotetrahydro-2′H-spiro[cyclohexane-1,6′-imidazo [1,5-b]isoxazol]-2′-yl)methyl)-6-methylphenoxy)acetohydrazide] | 172 ± 8.44 µM | 92.4 ± 4.05 µM | –
6 | Cc1cccc(C[C@@H]2C[C@H]3C(=O)N(C)[C@@]4(C[C@H](C)CC[C@H]4C(C)C)N3O2)c1OCC(=O)N/N=C1\C(=O)Nc2ccc(F)cc21 [5f, N'-((Z)-5-fluoro-2-oxoindolin-3-ylidene)-2-(2-(((1S,2S,2′R,3a′S,5R)-2-isopropyl-5,5′-dimethyl-4′-oxotetrahydro-2′H-spiro[cyclohexane-1,6′-imidazo [1,5-b]isoxazol]-2′-yl)methyl)-6-methylphenoxy)acetohydrazide] | 107 ± 5.31 µM | 55.7 ± 2.78 µM | –
7 | Cc1ccc2c(c1)/C(=N/NC(=O)COc1c(C)cccc1C[C@@H]1C[C@H]3C(=O)N(C)[C@@]4(C[C@H](C)CC[C@H]4C(C)C)N3O1)C(=O)N2 [5g, 2-(2-(((1S,2S,2′R,3a′S,5R)-2-isopropyl-5,5′-dimethyl-4′-oxotetrahydro-2′H-spiro[cyclohexane-1,6′-imidazo [1,5-b]isoxazol]-2′-yl)methyl)-6-methylphenoxy)-N'-((Z)-5-methyl-2-oxoindolin-3-ylidene)acetohydrazide] | – | 135 ± 6.73 µM | –
8 | Cc1cccc(C[C@@H]2C[C@H]3C(=O)N(C)[C@@]4(C[C@H](C)CC[C@H]4C(C)C)N3O2)c1OCC(=O)N/N=C1\C(=O)Nc2c(F)cccc21 [5h, N'-((Z)-7-fluoro-2-oxoindolin-3-ylidene)-2-(2-(((1S,2S,2′R,3a′S,5R)-2-isopropyl-5,5′-dimethyl-4′-oxotetrahydro-2′H-spiro[cyclohexane-1,6′-imidazo [1,5-b]isoxazol]-2′-yl)methyl)-6-methylphenoxy)acetohydrazide] | 85.2 ± 4.25 µM | 46.6 ± 2.3 µM | –
9 | C[C@H]1O[C@H](O[C@H]2[C@H](O)[C@@H](O)[C@@H](O[C@H]3[C@H](O)[C@@H](O)C(O)O[C@@H]3CO)O[C@@H]2CO)[C@H](O)[C@@H](O)[C@@H]1N[C@H]1C=C(CO)[C@@H](O)[C@H](O)[C@H]1O (stereo partly shown) [Acarbose, reference compound] | – | – | Inhibition mode towards α-glucosidase [3]: competitive inhibitors; also recorded: compete with the substrate; Inhibition mode towards α-amylase [4]: competitive inhibition; also recorded: competitive inhibitors
